pKi: −log10 of the molar value. Read-outs that look alike come from different tables or passages of the source.
Target: T1, human muscarinic M3 receptor (Homo sapiens, UniProt P20309)
T1 construct: expressed in transfected cells
Assay: hM3 β-Lac potency assay (cell based β-lactamase)
Description: M3 potency was determined in CHO-K1 cells transfected with the NFAT-Betalactamase gene. CHO (Chinese Hamster Ovary) cells recombinantly expressing the human muscarinic M3 receptor were transfected with the NFAT_β-Lac_Zeo plasmid.
The cells were re-suspended at 2×10^5 cells/ml in growth medium (composition as described above). […] Inhibition curves were plotted and IC50 values generated using a 4-parameter sigmoid fit and converted to Ki values using the Cheng-Prusoff correction and the KD value for carbamyl choline in the assay.

[1] = CHO cells expressing human M3 receptor, NFAT β-lactamase reporter, inhibition of 80 nM carbamyl choline signal, 4 h, IC50 converted to Ki by Cheng-Prusoff, read-out: Cell based β-lactamase M3 Ki
[2] = CHO cells expressing human M3 receptor, NFAT β-lactamase reporter, […], IC50 converted to Ki by Cheng-Prusoff, read-out: Cell based β-lactamase M3 Ki

T1 sequence (P20309 whole entry): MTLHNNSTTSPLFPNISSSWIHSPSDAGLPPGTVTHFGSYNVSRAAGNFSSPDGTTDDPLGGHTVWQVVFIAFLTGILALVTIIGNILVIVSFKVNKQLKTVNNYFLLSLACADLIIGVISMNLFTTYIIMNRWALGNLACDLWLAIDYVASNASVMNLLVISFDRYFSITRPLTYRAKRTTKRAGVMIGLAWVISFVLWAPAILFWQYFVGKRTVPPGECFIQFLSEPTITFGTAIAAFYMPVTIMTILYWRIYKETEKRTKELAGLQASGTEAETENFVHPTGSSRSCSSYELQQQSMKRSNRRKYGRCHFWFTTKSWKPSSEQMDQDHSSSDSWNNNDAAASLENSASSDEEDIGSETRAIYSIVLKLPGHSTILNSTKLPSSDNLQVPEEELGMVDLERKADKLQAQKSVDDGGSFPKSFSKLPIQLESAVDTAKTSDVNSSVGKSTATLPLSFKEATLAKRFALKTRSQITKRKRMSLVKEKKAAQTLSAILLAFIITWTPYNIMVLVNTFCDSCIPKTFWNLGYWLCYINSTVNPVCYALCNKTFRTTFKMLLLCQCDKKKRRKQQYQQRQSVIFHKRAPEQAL

In the case of `CC(C)(CCC(C(N)=O)(c1ccccc1)c1ccccc1)N1CC(Oc2cc(O)ccc2Cl)C1` [Example 118, 5-[3-(2-Chloro-5-hydroxy-phenoxy)-azetidin-1-yl]-5-methyl-2,2-diphenyl-hexanoic acid amide], the pKi [1] was 7.39.

For `CC(C)(CCC(C#N)(c1ccccc1)c1ccccc1)N1CC(OCc2ccc(O)cc2)C1` [Example 151, 5-{3-[(4-Hydroxybenzyl)oxy]azetidin-1-yl}-5-methyl-2,2-diphenylhexanenitrile], the pKi [2] was 9.72.

`COc1cccc(O[C@@H]2CCN(C(C)(C)CCC(C(N)=O)(c3ccccc3)c3ccccc3)C2)c1` [Example 12, 5-[(3R)-3-(3-Methoxyphenoxy)pyrrolidin-1-yl]-5-methyl-2,2-diphenylhexanamide] showed a pKi [1] of 9.52.

Work on `CC(C)(CCC(C(N)=O)(c1ccccc1)c1ccccc1)N1CC(OCc2ccccc2)C1` [Example 102, 5-[3-(Benzyloxy)azetidin-1-yl]-5-methyl-2,2-diphenylhexanamide] yielded a pKi [1] of 10.20.

Work on `CC(C)(CCC(C(N)=O)(c1ccccc1)c1ccccc1)N1CC[C@H](Oc2ccc(Cl)cc2O)C1` [Example 36, 5-[(3S)-3-(4-Chloro-2-Hydroxy-phenoxy)-pyrrolidin-1-yl]-5-methyl-2,2-diphenyl-hexanoic acid amide] yielded a pKi of 7.75.

With `CC(C)(CCC(C(N)=O)(c1ccccc1)c1ccccc1)N1CC[C@H](Oc2cc(O)ccc2Cl)C1` [Example 40, 5-[(3S)-3-(2-Chloro-5-Hydroxy-phenoxy)-pyrrolidin-1-yl]-5-methyl-2,2-diphenyl-hexanoic acid amide] the pKi [1] was 8.22.

`CC(C)(CCC(C(N)=O)(c1ccccc1)c1ccccc1)N1CC(Oc2ccccc2O)C1` [Example 109, 5-[3-(2-Hydroxyphenoxy)azetidin-1-yl]-5-methyl-2,2-diphenylhexanamide] was tested, and the pKi [1] was 7.97.

`CC(C)(CCC(C(N)=O)(c1ccccc1)c1ccccc1)N1CC(OCc2ccc(Cl)c(O)c2)C1` [Example 138, 5-[3-(4-Chloro-3-hydroxy-benzyloxy)-azetidin-1-yl]-5-methyl-2,2-diphenyl-hexanoic acid amide] was tested, and the pKi [1] was 9.33.

`CC(C)(CCC(C(N)=O)(c1ccccc1)c1ccccc1)N1CC[C@@H](OCc2cccc(O)c2)C1` [Example 54, 5-[(3R)-3-(3-Hydroxy-benzyloxy)-pyrrolidin-1-yl]-5-methyl-2,2-diphenyl-hexanoic acid amide] was tested, and the pKi [1] was 8.44.

`CC(C)(CCC(C#N)(c1ccccc1)c1ccccc1)N1CC(Oc2cccc(O)c2)C1` [Example 150, 5-[3-(3-Hydroxy-phenoxy)-azetidin-1-yl]-5-methyl-2,2-diphenyl-hexanenitrile] showed a pKi [1] of 8.98.

`CC(C)(CCC(C#N)(c1ccccc1)c1ccccc1)N1CC[C@H](Oc2ccccc2)C1` [Example 1, 5-Methyl-5-[(3S)-3-phenoxypyrrolidin-1-yl]-2,2-diphenylhexanenitrile] was tested, and the pKi [2] was 8.08.

For `CC(C)(CCC(C(N)=O)(c1ccccc1)c1ccccc1)N1CC[C@H](Oc2cc(O)c(Cl)cc2Cl)C1` [Example 31, 5-[(3S)-3-(2,4-Dichloro-5-Hydroxy-phenoxy)-pyrrolidin-1-yl]-5-methyl-2,2-diphenyl-hexanoic acid amide], the pKi [1] was 7.35.

For `CC(C)(CCC(C(N)=O)(c1ccccc1)c1ccccc1)N1CC[C@H](Oc2ccc3ccc(O)cc3c2)C1` [Example 70, 5-[(3S)-3-[(7-Hydroxy-2-naphthyl)oxy]pyrrolidin-1-yl]-5-methyl-2,2-diphenylhexanamide], the pKi [1] was 7.72.

Molecule `CC(C)(CCC(C(N)=O)(c1ccccc1)c1ccccc1)N1CC[C@H](Oc2cccc(O)c2Cl)C1` [Example 38, 5-[(3S)-3-(2-Chloro-3-Hydroxy-phenoxy)-pyrrolidin-1-yl]-5-methyl-2,2-diphenyl-hexanoic acid amide] has a pKi [1] of 9.00.

In the case of `COc1cc(O[C@H]2CCN(C(C)(C)CCC(C(N)=O)(c3ccccc3)c3ccccc3)C2)ccc1F` [Example 50, 5-[(3S)-3-(4-Fluoro-3-Methoxy-phenoxy)-pyrrolidin-1-yl]-5-methyl-2,2-diphenyl-hexanoic acid amide], the pKi [1] was 8.50.

Work on `CC(C)(CCC(C(N)=O)(c1ccccc1)c1ccccc1)N1CC(OCc2cccc(O)c2)C1` [Example 115, 5-[3-(3-Hydroxy-benzyloxy)-azetidin-1-yl]-5-methyl-2,2-diphenyl-hexanoic acid amide] yielded a pKi [1] of 9.75.

`CC(C)(CCC(C(N)=O)(c1ccccc1)c1ccccc1)N1CC[C@H](Oc2ccc(Cl)cc2)C1` [Example 16, 5-[(3S)-3-(4-Chlorophenoxy)pyrrolidin-1-yl]-5-methyl-2,2-diphenylhexanamide] gave a pKi [1] of 8.73.

Molecule `CC(C)(CCC(C(N)=O)(c1ccccc1)c1ccccc1)N1CC[C@@H](OCc2cccc(O)c2Cl)C1` [Example 85, 5-[(3R)-3-(2-Chloro-3-hydroxy-benzyloxy)-pyrrolidin-1-yl]-5-methyl-2,2-diphenylhexanamide] has a pKi [1] of 8.50.

`CC(C)(CCC(C(N)=O)(c1ccccc1)c1ccccc1)N1CC[C@H](Oc2cc(O)cc(F)c2)C1` [Example 46, 5-[(3S)-3-(3-Fluoro-5-Hydroxy-phenoxy)-pyrrolidin-1-yl]-5-methyl-2,2-diphenyl-hexanoic acid amide] showed a pKi [1] of 8.76.

`CC(C)(CCC(C#N)(c1ccccc1)c1ccccc1)N1CC[C@H](OCc2cccc(-c3ccccc3O)c2)C1` [Example 58, 5-{(3S)-3-[(2′-Hydroxybiphenyl-3-yl)methoxy]pyrrolidin-1-yl}-5-methyl-2,2-diphenylhexanenitrile] was tested, and the pKi [1] was 5.80.

Work on `NC(=O)C(CCC1(N2CC(Oc3ccc(O)c(F)c3)C2)CCCC1)(c1ccccc1)c1ccccc1` [Example 145, 4-{1-[3-(3-Fluoro-4-hydroxy-phenoxy)-azetidin-1-yl]-cyclopentyl}-2,2-diphenyl-butyramide] yielded a pKi [1] of 7.97.

`Cc1cc(O)cc(O[C@H]2CCN(C(C)(C)CCC(C(N)=O)(c3ccccc3)c3ccccc3)C2)c1` [Example 29, 5-[(3S)-3-(3-Hydroxy-5-methyl-phenoxy)-pyrrolidin-1-yl]-5-methyl-2,2-diphenyl-hexanoic acid amide] showed a pKi [1] of 8.65.

In the case of `CC(C)(CCC(C(N)=O)(c1ccccc1)c1ccccc1)N1CC(OCc2ccc(O)c(Cl)c2)C1` [Example 146, 5-[3-(3-Chloro-4-hydroxy-benzyloxy)-azetidin-1-yl]-5-methyl-2,2-diphenyl-hexanoic acid amide], the pKi [1] was 9.61.

`CC(C)(CCC(C(N)=O)(c1ccccc1)c1ccccc1)N1CC[C@H](Oc2ccc(-c3ccccc3)cc2)C1` [Example 71, 5-[(3S)-3-(4-Phenylphenoxy)pyrrolidin-1-yl]-5-methyl-2,2-diphenylhexanamide] showed a pKi [1] of 6.95.

Molecule `CC(C)(CCC(C(N)=O)(c1ccccc1)c1ccccc1)N1CC[C@@H](Oc2ccc(C#N)c(O)c2)C1` [Example 83, 5-[(3R)-3-(3-hydroxy-4-cyano-phenoxy)-pyrrolidin-1-yl]-5-methyl-2,2-diphenylhexanamide] has a pKi [1] of 7.52.

`CC(C)(CCC(C(N)=O)(c1ccccc1)c1ccccc1)N1CC(Oc2cc(O)cc(O)c2)C1` [Example 149, 5-[3-(3,5-Dihydroxy-phenoxy)-azetidin-1-yl]-5-methyl-2,2-diphenyl-hexanoic acid amide] gave a pKi [1] of 9.15.

`CC(C)(CCC(C(N)=O)(c1ccccc1)c1ccccc1)N1CC[C@H](OCc2cccc(-c3ccc(O)cc3)c2)C1` [Example 63, 5-{(3S)-3-[(4′-Hydroxybiphenyl-3-yl)methoxy]pyrrolidin-1-yl}-5-methyl-2,2-diphenylhexanamide] gave a pKi [1] of 7.54.

`CC(C)(CCC(C(N)=O)(c1ccccc1)c1ccccc1)N1CC(OCc2c(Cl)ccc(O)c2Cl)C1` [Example 128, 5-[3-(2,6-Dichloro-3-hydroxy-benzyloxy)-azetidin-1-yl]-5-methyl-2,2-diphenyl-hexanoic acid amide] was tested, and the pKi [1] was 8.09.

With `CC(C)(CCC(C(N)=O)(c1ccccc1)c1ccccc1)N1CCC(OCc2ccccc2)CC1` [Example 92, 5-[4-(Benzyloxy)piperidin-1-yl]-5-methyl-2,2-diphenylhexanamide] the pKi [1] was 8.67.

Molecule `CC(C)(CCC(C(N)=O)(c1ccccc1)c1ccccc1)N1CC(OCc2cccc(O)c2Cl)C1` [Example 148, 5-[3-(2-Chloro-3-hydroxy-benzyloxy)-azetidin-1-yl]-5-methyl-2,2-diphenyl-hexanoic acid amide] has a pKi [1] of 9.45.

Work on `COc1ccc(OC2CN(C(C)(C)CCC(C#N)(c3ccccc3)c3ccccc3)C2)cc1` [Example 105, 5-[3-(4-Methoxyphenoxy)azetidin-1-yl]-5-methyl-2,2-diphenylhexanenitrile] yielded a pKi [1] of 8.71.

For `Cc1c(O)cccc1OC1CCN(C(C)(C)CCC(C(N)=O)(c2ccccc2)c2ccccc2)CC1` [Example 96, 5-[4-(3-hydroxy-2-methylphenoxy)piperidin-1-yl]-5-methyl-2,2-diphenylhexanamide], the pKi [1] was 8.19.

`CC(C)(CCC(C(N)=O)(c1ccccc1)c1ccccc1)N1CC[C@@H](Oc2cccc(Cl)c2O)C1` [Example 43, 5-[(3R)-3-(3-Chloro-2-Hydroxy-phenoxy)-pyrrolidin-1-yl]-5-methyl-2,2-diphenyl-hexanoic acid amide] gave a pKi [1] of 8.27.

In the case of `CC(C)(CCC(C(N)=O)(c1ccccc1)c1ccccc1)N1CC[C@H](Oc2cc(Cl)c(Cl)cc2O)C1` [Example 32, 5-[(3S)-3-(4,5-Dichloro-2-Hydroxy-phenoxy)-pyrrolidin-1-yl]-5-methyl-2,2-diphenyl-hexanoic acid amide], the pKi [1] was 7.44.

In the case of `CC(C)(CCC(C(N)=O)(c1ccccc1)c1ccccc1)N1CCC(OCc2cccc(-c3cccc(O)c3)c2)CC1` [Example 98, 5-{4-[(3′-hydroxybiphenyl-3-yl)methoxy]piperidin-1-yl}-5-methyl-2,2-diphenylhexanamide], the pKi [1] was 6.86.

`CC(C)(CCC(C(N)=O)(c1ccccc1)c1ccccc1)N1CC[C@@H](Oc2cccc(O)c2Cl)C1` [Example 78, 5-[(3R)-3-(2-Chloro-3-hydroxy-phenoxy)-pyrrolidin-1-yl]-5-methyl-2,2-diphenylhexanamide] showed a pKi [1] of 9.04.

— patent US8268881B2, “Carboxamide derivatives as muscarinic receptor antagonists” (Pfizer Limited, priority 2005, dated 2012)
